# Assay results: publication PMC10803289, “Transport and inhibition mechanism of the human SGLT2–MAP17 glucose transporter” (Nature Structural & Molecular Biology, 2023)
# Numbering of substitutions follows the chain as printed. Several values for one entry are separate records, joined by “and”; a condition that tells them apart may be missing. Equal values may be shown once. Read-outs that look alike come from different tables or passages of the source.
# How the values were obtained:
# Format in all cases: cell-based
# [1] = biological target: T1, hSGLT2 F98A (Homo sapiens, UniProt P31639, F98A); assay: α-MG uptake in HEK293 cells, F98A mutant; parameters: expressed in transfected cells
# T1 sequence (P31639 1-672 F98A): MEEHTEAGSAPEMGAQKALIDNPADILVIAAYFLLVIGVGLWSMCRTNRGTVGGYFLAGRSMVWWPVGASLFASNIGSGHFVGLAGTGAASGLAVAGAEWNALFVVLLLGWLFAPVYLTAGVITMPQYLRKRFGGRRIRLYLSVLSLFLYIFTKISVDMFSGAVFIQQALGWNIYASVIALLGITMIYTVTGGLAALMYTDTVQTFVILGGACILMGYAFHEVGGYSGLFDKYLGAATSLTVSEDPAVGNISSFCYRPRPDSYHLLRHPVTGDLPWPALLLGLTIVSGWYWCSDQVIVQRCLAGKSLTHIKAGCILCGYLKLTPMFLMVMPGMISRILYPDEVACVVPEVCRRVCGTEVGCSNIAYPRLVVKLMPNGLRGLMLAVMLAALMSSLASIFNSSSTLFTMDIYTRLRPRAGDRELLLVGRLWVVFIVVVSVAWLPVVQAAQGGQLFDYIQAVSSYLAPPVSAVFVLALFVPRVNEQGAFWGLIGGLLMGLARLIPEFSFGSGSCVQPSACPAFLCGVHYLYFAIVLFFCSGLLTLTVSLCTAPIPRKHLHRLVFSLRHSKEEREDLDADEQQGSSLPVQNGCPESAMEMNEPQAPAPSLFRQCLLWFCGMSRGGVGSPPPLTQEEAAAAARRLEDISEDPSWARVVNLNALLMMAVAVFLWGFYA
# T1 sequence (Q13113 1-114 partner): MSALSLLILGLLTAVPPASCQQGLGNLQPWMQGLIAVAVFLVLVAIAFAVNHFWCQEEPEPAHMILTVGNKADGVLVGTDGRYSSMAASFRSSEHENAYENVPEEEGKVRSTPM
# Excerpt: (§1) hSGLT2 complementary DNA and human MAP17 cDNA were synthesized and codon-optimized for expression in human cell lines. Both cDNAs were cloned into the pcDNA3.4 vector. The hSGLT2 sequence was fused with an N-terminal signal sequence from human trypsinogen 1, a His10 tag, and sfGFP, followed by a human rhinovirus 3C protease (HRV3C protease) recognition site. Point mutations were introduced into this construct using site-directed mutagenesis. These plasmids were utilized for all experimental procedures conducted in this study.
# (§2) HEK293 cells (ECACC 85120602) were maintained in Dulbecco’s modified Eagle medium (Gibco) supplemented with 10% fetal bovine serum (Thermo Scientific), 2 mM L-glutamine, 100 U ml^−1 benzylpenicillin and 100 µg ml^−1 streptomycin at 37 °C in a humidified atmosphere (5% CO2 in air). HEK293 cells were seeded at 1.0 × 10^5 cells per well in poly-L-lysine coated 24-well plates. The cells in each well were transiently transfected with 0.25 µg hMAP17 plasmid and 0.50 µg hSGLT2 plasmid using Lipofectamine 2000 (Life Technologies) and cultured for 48 h. […] After preincubation, uptake was initiated by replacing the preincubation buffer with extracellular fluid buffer containing 500 μM α-MG in the absence or presence of inhibitors. Uptake was completed by removing the uptake buffer and washing with ice-cold buffer three times, followed by solubilization in 1 N NaOH at room temperature.
# (§3) Cell lysates were deproteinized by adding acetonitrile containing candesartan as the internal standard. The α-MG concentration was quantified via liquid chromatography–tandem mass spectrometry (LC–MS/MS) using the internal standard method.
# (§4) Cellular protein content was determined using a bicinchoninic acid protein assay kit (Thermo Fisher Scientific). The uptake of α-MG was expressed as the ratio of concentration in the cells (in pmol per mg protein) to concentration in the medium (in pmol μl^−1); this is known as the cell-to-medium ratio (in μl per mg protein).
# (§5) In the inhibition study, the cell-to-medium ratio of cells transfected with the empty vector was used as the background. The specific α-MG uptake was calculated by subtracting this background from the total cell-to-medium ratio and normalized to the uptake achieved without the inhibitor. IC50 was calculated via nonlinear regression using GraphPad Prism 8.4.3.
# (§6) The concentrations of the extract solution from the filter plate and of the cell lysate were quantified using a tandem mass spectrometry QTRAP6500 System (SCIEX) coupled with an ACQUITY UPLC system (Waters) using the internal standard method. Mobile phases A and B used 10 mM of ammonium bicarbonate and acetonitrile, respectively.
# [2] = biological target: T2, hSGLT2 F453A (Homo sapiens, UniProt P31639, F453A); assay: α-MG uptake in HEK293 cells, F453A mutant; parameters: expressed in transfected cells
# T2 sequence (P31639 1-672 F453A): T1 sequence (P31639 1-672 F98A) with A98F, F453A
# T2 sequence (Q13113 1-114 partner): T1 sequence (Q13113 1-114 partner)
# Excerpt: as §1, §2, §3, §4, §5, §6
# [3] = biological target: T3, hSGLT2 S74A (Homo sapiens, UniProt P31639, S74A)
# T3 construct: expressed in transfected cells; host or cells: Expi293 cells, crude membrane fraction
# T3 sequence (P31639 whole entry S74A, one chain of several): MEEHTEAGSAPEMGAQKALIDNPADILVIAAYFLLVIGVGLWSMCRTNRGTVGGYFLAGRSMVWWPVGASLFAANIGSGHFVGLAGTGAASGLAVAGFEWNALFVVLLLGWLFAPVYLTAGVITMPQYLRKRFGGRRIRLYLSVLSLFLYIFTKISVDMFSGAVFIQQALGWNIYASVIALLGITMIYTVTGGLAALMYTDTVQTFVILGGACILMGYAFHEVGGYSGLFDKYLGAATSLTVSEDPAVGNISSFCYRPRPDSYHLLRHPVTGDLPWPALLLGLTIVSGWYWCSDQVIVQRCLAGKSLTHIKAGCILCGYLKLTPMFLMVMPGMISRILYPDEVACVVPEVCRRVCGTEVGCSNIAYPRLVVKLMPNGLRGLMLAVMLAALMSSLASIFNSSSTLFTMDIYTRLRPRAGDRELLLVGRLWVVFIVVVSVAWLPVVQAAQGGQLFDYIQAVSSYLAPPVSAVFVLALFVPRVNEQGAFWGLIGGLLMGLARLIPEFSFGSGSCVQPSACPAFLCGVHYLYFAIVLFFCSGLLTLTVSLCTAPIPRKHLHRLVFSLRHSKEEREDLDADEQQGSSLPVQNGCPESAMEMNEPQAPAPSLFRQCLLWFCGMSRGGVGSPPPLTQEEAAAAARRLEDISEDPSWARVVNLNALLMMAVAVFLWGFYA
structure (smiles),measurement,setting,value
"CO[C@H]1O[C@H](CO)[C@@H](O)[C@H](O)[C@H]1O [α-MG, α-methyl-D-glucopyranoside]",α-MG uptake,[1]; Fig. 3h,55.68 μL/mg-protein and 75.98 μL/mg-protein and 85.61 μL/mg-protein
same,α-MG uptake,[2]; Fig. 3h,21.78 μL/mg-protein and 20.01 μL/mg-protein and 27.75 μL/mg-protein
same,α-MG uptake,[3]; Fig. 3h,27.75 μL/mg-protein and 30.77 μL/mg-protein and 34.71 μL/mg-protein
O=C(CCc1ccc(O)cc1)c1c(O)cc(O)cc1O[C@@H]1O[C@H](CO)[C@@H](O)[C@H](O)[C@H]1O [Phlorizin],remaining activity at 0.3 µM,"[1]; HEK293, Phlorizin 300 nM, read-out: α-MG uptake (% of control)",80.5%
same,α-MG uptake (% of control),[1]; Phlorizin 0.3 nM,115.8 % of control and 94.2 % of control and 155.8 % of control
same,α-MG uptake (% of control),[1]; Phlorizin 3 nM,76.0 % of control and 88.8 % of control and 126.1 % of control
same,α-MG uptake (% of control),[1]; Phlorizin 10 nM,79.6 % of control and 104.3 % of control and 76.0 % of control
same,α-MG uptake (% of control),[1]; Phlorizin 30 nM,103.1 % of control and 103.4 % of control and 128.4 % of control
same,α-MG uptake (% of control),[1]; Phlorizin 100 nM,135.2 % of control and 89.8 % of control and 99.6 % of control
same,α-MG uptake (% of control),[1]; Phlorizin 300 nM,69.6 % of control and 82.5 % of control
same,α-MG uptake (% of control),[2]; Phlorizin 0.3 nM,102.6 % of control and 120.9 % of control and 125.2 % of control
same,α-MG uptake (% of control),[2]; Phlorizin 1 nM,103.4 % of control and 113.9 % of control and 124.6 % of control
same,α-MG uptake (% of control),[2]; Phlorizin 3 nM,96.6 % of control and 95.6 % of control and 68.3 % of control
same,α-MG uptake (% of control),[2]; Phlorizin 10 nM,133.1 % of control and 118.1 % of control and 89.5 % of control
same,α-MG uptake (% of control),[2]; Phlorizin 30 nM,123.6 % of control and 119.1 % of control and 101.2 % of control
same,α-MG uptake (% of control),[2]; Phlorizin 100 nM,126.1 % of control and 70.5 % of control and 71.8 % of control
same,α-MG uptake (% of control),[3]; Phlorizin 0.3 nM,98.3 % of control and 109.0 % of control and 132.4 % of control
same,α-MG uptake (% of control),[3]; Phlorizin 1 nM,94.4 % of control and 116.6 % of control and 114.8 % of control
same,α-MG uptake (% of control),[3]; Phlorizin 3 nM,99.5 % of control and 109.8 % of control
same,α-MG uptake (% of control),[3]; Phlorizin 10 nM,92.0 % of control and 68.8 % of control
same,α-MG uptake (% of control),[3]; Phlorizin 30 nM,76.5 % of control and 90.7 % of control
same,α-MG uptake (% of control),[3]; Phlorizin 100 nM,51.6 % of control and 68.4 % of control
same,α-MG uptake (% of control),[3]; Phlorizin 300 nM,32.7 % of control and 25.1 % of control
